# From patent US20040157858A1, “Piperazine derivatives as tachykinin antagonists” (priority 2001, published 2004)
# Structures can show the parent of a compound that is named as a salt.
# Molecular target: T1, recombinant human NK1 receptors (Homo sapiens, UniProt P25103)
# T1 construct: expressed in transfected cells; host or cells: Chinese Hamster Ovary (CHO) cells, membrane preparation
# Assay: NK1-receptor binding affinity, displacement of [3H]-substance P
# Details: displacement of [3H]-substance P from recombinant human NK1 receptors expressed in CHO cell membranes; average of at least two determinations
# Method: NK1-receptor binding affinity has been determined in vitro by the compounds' ability to displace [3H]-substance P (SP) from recombinant human NK1 receptors expressed in Chinese Hamster Ovary (CHO) cell membranes.
# CHO cell membranes were prepared by using a modification of the method described by Dam T and Quirion R (Peptides, 7:855-864, 1986). Thus ligand binding was performed in 0.4 ml of 50 mM HEPES, pH 7.4, containing 3 mM MnCl2, 0.02% BSA, 0.5 nM [^3H]-Substance P (30÷56 Ci/mmol, Amersham), a final membrane concentration of 25 μg of protein/ml, and the test compounds. The incubation proceeded at room temperature for 40 min. Non-specific binding was determined using excess of Substance P (1 μM) and represents about 6% of the total binding.
# The affinity of the compound of the invention for NK1 receptor was determined using the NK1-receptor binding affinity method measuring in vitro by the compounds' ability to displace [3H]-substance P (SP) from recombinant human NK1 receptors expressed in Chinese Hamster Ovary (CHO) cell membranes. The affinity values are expressed as negative logarithm of the inhibition constant (Ki) of displacer ligands (pKi).
# The pKi values obtained as the average of at least two determinations with representative compounds of the invention are given in the following table: […]
# T1 sequence (P25103 whole entry): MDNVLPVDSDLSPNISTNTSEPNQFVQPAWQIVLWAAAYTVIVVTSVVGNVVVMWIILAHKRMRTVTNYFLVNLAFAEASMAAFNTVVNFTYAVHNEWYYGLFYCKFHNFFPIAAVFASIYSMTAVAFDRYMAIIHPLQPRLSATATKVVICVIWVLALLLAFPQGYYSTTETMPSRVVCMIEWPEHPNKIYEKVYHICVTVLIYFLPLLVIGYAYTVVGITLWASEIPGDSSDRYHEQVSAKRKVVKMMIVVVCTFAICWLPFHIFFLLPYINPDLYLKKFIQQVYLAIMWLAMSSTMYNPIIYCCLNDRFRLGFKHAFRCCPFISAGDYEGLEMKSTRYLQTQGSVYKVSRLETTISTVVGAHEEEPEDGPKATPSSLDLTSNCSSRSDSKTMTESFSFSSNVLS
row,Ki [pM],Structure (SMILES)
1,724,"Cc1cc(C)cc(CN(C)C(=O)N2CCNC[C@@H]2c2ccc(F)cc2C)c1 [Example 2, 2-(S)-(4Fluoro-2-methyl-phenyl)piperazine-1-carboxylic Acid, (3,5-dimethyl-benzyl)-methylamide Hydrochloride]"
2,372,"Cc1cc(F)ccc1[C@H]1CNCCN1C(=O)N(C)Cc1cc(Cl)cc(Cl)c1.Cl [Example 3, 2-(S)-(4-Fluoro-2-methyl-phenyl)-piperazine-1-carboxylic Acid, (3,5-dichloro-benzyl)-methylamide Hydrochloride]"
3,1660,"Cc1cc(F)ccc1[C@H]1CNCCN1C(=O)N(C)Cc1cc(F)cc(F)c1 [Example 6, 2-(S)-(4-Fluoro-2-methyl-phenyl)-piperazine-1-carboxylic Acid, (3,5-difluoro-benzyl)-methylamide Hydrochloride]"
4,851,"Cc1cc(F)ccc1[C@H]1CNCCN1C(=O)N(C)Cc1cc(Cl)ccc1Cl [Example 7, 2-(S)-(4-Fluoro-2-methyl-phenyl)-piperazine-1-carboxylic Acid, (2,5-dichloro-benzyl)-methylamide Hydrochloride]"
5,646,"Cc1cc(F)ccc1[C@H]1CNCCN1C(=O)N(C)Cc1ccc(Cl)c(Cl)c1 [Example 8, 2-(S)-(4-fluoro-2-methyl-phenyl)-piperazine-1-carboxylic Acid, (3,4-dichlorobenzyl)-methylamide Trifluoroacetate]"

# Test system: not given
# Assay: not given
# Details: not given
row,melting point [°C],Structure (SMILES)
1,110 to 112,"Cc1cc(F)ccc1[C@H]1CNCCN1C(=O)N(C)Cc1cc(Cl)cc(Cl)c1.Cl [Example 3, 2-(S)-(4-Fluoro-2-methyl-phenyl)-piperazine-1-carboxylic Acid, (3,5-dichloro-benzyl)-methylamide Hydrochloride]"
